Source: PMC10495264 (Nature Cell Biology, 2023)
Several values for one entry are separate records, joined by “and”; a condition that tells them apart may be missing. Identical values can stand only once.

Tests used:
mTORC1 [1] = biological target: T1, mTORC1 (Homo sapiens, UniProt P42345); assay: Mammalian mTORC1 kinase activity assays (IVK, 4E-BP1 substrate); type: biochemical
T1 construct: endogenous mTORC1 complexes were purified from HEK293FT cells; endogenous in cells; host or cells: HEK293FT (immunoprecipitation of endogenous mTOR); the 4E-BP1 substrate was made in E. coli BL21 RP
Procedure: Following the last wash step with CHAPS IP wash buffer, the beads were washed once with kinase wash buffer (25 mM HEPES pH 7.4 and 20 mM KCl) and excess liquid was removed using a Hamilton syringe—the final bead volume was approximately 10 μl. Kinase reactions were prepared by adding 10 μl of 3×kinase assay buffer (75 mM HEPES KOH pH 7.4, 60 mM KCl and 30 mM MgCl2) to the beads. […] The reactions were incubated at 30 °C for 30 min, and stopped by the addition of one volume of 2×SDS loading buffer and boiling (5 min, 95 °C). […] Signals were quantified using the gel analysis tool of ImageJ and are shown as the phospho-4E-BP1^T37/46/4E-BP1 ratio.

[2] = biological target: T2, mTORC1 containing mTOR^K1218R; assay: mTORC1 IVK with SBP-tagged mTOR^K1218R and HA–Raptor; type: biochemical, human; conditions: presence or absence of 5 mM Mal-CoA
T2 construct: expressed in transfected cells; host or cells: HEK293FT
Procedure: Briefly, cells of a near-confluent well of a six-well plate were lysed in CHAPS IP buffer (50 mM Tris pH 7.5, 0.3% CHAPS detergent, 150 mM NaCl, 50 mM NaF, 2 mM Na-vanadate and 0.011 g ml^−1 β-glycerophosphate) supplemented with 1×PhosSTOP phosphatase inhibitors and 1×EDTA-free cOmplete protease inhibitors for 10 min on ice, and the samples were clarified by centrifugation (20,000g, 15 min, 4 °C). Each supernatant was split in three equal fractions and each fraction was incubated (4 °C with rotation) with 20 μl of pre-washed Streptavidin Sepharose (cat. no. 90100484, Cytiva) for 1 h. The beads were then washed three times with CHAPS IP wash buffer (50 mM Tris pH 7.5, 0.3% CHAPS, 150 mM NaCl and 50 mM NaF) and either used for IVK assays (‘Mammalian mTORC1 kinase activity assays’ section) or boiled in 2×SDS loading buffer (5 min, 95 °C) and analysed by SDS–PAGE and immunoblotting to assess the stability of the mTOR complex.
In vitro activity assays were performed as described earlier for endogenous mTOR complexes.
Endogenous mTOR was immunoprecipitated in the presence or absence of 1 mM Mal-CoA (added directly in the lysates 5 min previous to addition of the antibody). Co-immunoprecipitation of Raptor and mLST8 assayed by immunoblotting; n = 2 independent experiments. c, Mal-CoA inhibits mTORC1 independently from mTOR malonylation. […] Data are the mean ± s.d. (a) or mean ± s.e.m. […]

[3] = tested on: recombinant human MCD (Mal-CoA decarboxylase); conditions: read-out: apparent Michaelis constant (Km) of recombinant human MCD for Mal-CoA; cited from earlier work
yeast cells = assay: Drop spot growth assays on rapamycin and/or cerulenin plates; type: cell-based, Saccharomyces cerevisiae; conditions: low / sublethal doses combined
Procedure: Yeast cells (Saccharomyces cerevisiae) were cultured in liquid SC medium (1.7 g l^−1 yeast nitrogen base (cat. no. 1545, CONDA), 5 g l^−1 ammonium sulfate (cat. no. 4808211, MP Biomedicals), 20 g l^−1 glucose (cat. no. 1422, AppliChem), 2 g l^−1 amino acid dropout –His (D9520, US Biological) and 35 mg l^−1 histidine (A1341, AppliChem) at 30 °C to the exponential growth phase, unless otherwise stated in the figure legends. All yeast strains used in this study are listed in Supplementary Table 1.

Mal-CoA levels = assay: fapR/fapOp-yeGFP Mal-CoA reporter system, GFP immunoblot; type: cell-based, Saccharomyces cerevisiae; conditions: yeast, untreated = 1, n = 4, Fig. 2b
TORC1 = TORC1 activity in yeast cells, p-Sch9^T737/Sch9 immunoblot; type: cell-based, Saccharomyces cerevisiae; conditions: for p-Sch9(T737)/Sch9 (relative TORC1 activity), Mean: yeast, untreated = 1, n = 4, Fig. 2c
TORC2 = TORC2 activity in yeast cells, p-Ypk1^T662/Ypk1 immunoblot; type: cell-based, Saccharomyces cerevisiae; conditions: cerulenin 20 μM, 2 h; for p-Ypk1(T662)/Ypk1, Mean: wt Ctrl = 1, Fig. 3f
[4] = tested on: total protein malonylation; assay: Lysine malonylation in yeast cells, Mal-K/Adh1 immunoblot; type: cell-based, Saccharomyces cerevisiae; conditions: cerulenin 20 μM, 2 h, wt Ctrl = 1, Fig. 3i
[5] = tested on: total protein malonylation; assay: Total protein malonylation (Mal-K immunoblot) in HEK293FT/HEK293T cells; type: cell-based, human
mTORC1 [6] = assay: mTORC1 activity in MCF-7 cells, p-S6K^T389/S6K immunoblot; type: cell-based, human; conditions: cerulenin 50 μM 2 or 4 h
[7] = tested on: FASN, ACC1 and mTOR total protein levels; assay: FASN, ACC1 and mTOR total protein levels, immunoblot; type: cell-based, human
Procedure: For standard SDS–PAGE and immunoblotting experiments, cells from a well of a 12-well plate were lysed in 250 μl of ice-cold Triton lysis buffer (50 mM Tris pH 7.5, 1% Triton X-100, 150 mM NaCl, 50 mM NaF, 2 mM Na-vanadate and 0.011 g ml^−1 β-glycerophosphate) supplemented with 1×PhosSTOP phosphatase inhibitors (cat. no. 4906837001, Roche) and 1×cOmplete protease inhibitors (cat. no. 11836153001, Roche) for 10 min on ice. The samples were clarified by centrifugation (20,000g, 15 min, 4 °C) and the supernatants were boiled in 1×SDS sample buffer (5×SDS sample buffer: 350 mM Tris–HCl pH 6.8, 30% glycerol, 600 mM DTT, 12.8% SDS and 0.12% bromophenol blue). The band intensities were quantified using the ImageJ software.
Data in graphs are shown as the mean ± s.e.m. *P < 0.05, **P < 0.005, ***P < 0.0005. Source numerical data and unprocessed blots are provided. Source data

[8] = tested on: mTOR and FASN malonylation; assay: Malonylation of immunopurified mTOR and FASN (anti-Mal-K) from HEK293FT cells; type: cell-based, human
Procedure: Protein malonylation was assayed by immunoblotting using a Mal-K-specific antibody.

[9] = tested on: Tor1 and Fas1 malonylation; assay: Malonylation of immunopurified HA-Tor1 and Fas1-HA (anti-Mal-K) from yeast cells; type: cell-based, Saccharomyces cerevisiae
Procedure: For the yeast co-immunoprecipitations experiments, cells were collected by filtration and immediately frozen in liquid nitrogen. […] Total cell extracts were recovered from the beads and cleared by centrifugation. At this stage, samples were taken for input analysis and denatured with a Laemmli-based sample buffer (350 mM Tris–HCl pH 6.8, 30% glycerol, 600 mM DTT, 10% SDS and 0.2 mg ml^−1 bromophenol blue). The cleared lysates (10–20 mg) were incubated for 2 h at 4 °C with magnetic beads pre-conjugated with anti-HA (cat. no. 88837, Pierce). The beads were then washed five times with high salt lysis buffer (50 mM Tris–HCl pH 7.5, 300 mM NaCl, 10% glycerol and 0.1% Nonidet P40) and eventually resuspended in 20 μl lysis buffer and 20 μl 2×Laemmli buffer.

CC(C)(COP(=O)(O)OP(=O)(O)OCC1OC(n2cnc3c(N)ncnc32)C(O)C1OP(=O)(O)O)C(O)C(=O)NCCC(=O)NCCSC(=O)CC(=O)O (stereo not drawn) [Mal-CoA, malonyl-CoA]
IC50 (mTORC1 [1]): 230 µM
In vitro mTORC1 assay, p-4E-BP1(T37/46)/4E-BP1, Mean (mTORC1 [1]; Fig. 8f, compound 0.01 mM, relative to 0 mM): 0.741
In vitro mTORC1 assay, p-4E-BP1(T37/46)/4E-BP1, Mean (mTORC1 [1]; Fig. 8f, compound 0.05 mM, relative to 0 mM): 0.7667
In vitro mTORC1 assay, p-4E-BP1(T37/46)/4E-BP1, Mean (mTORC1 [1]; Fig. 8f, compound 0.1 mM, relative to 0 mM): 0.821
In vitro mTORC1 assay, p-4E-BP1(T37/46)/4E-BP1, Mean (mTORC1 [1]; Fig. 8f, compound 0.5 mM, relative to 0 mM): 0.5457
In vitro mTORC1 assay, p-4E-BP1(T37/46)/4E-BP1, Mean (mTORC1 [1]; Fig. 8f, compound 1 mM, relative to 0 mM): 0.5376
In vitro mTORC1 assay, p-4E-BP1(T37/46)/4E-BP1, Mean (mTORC1 [1]; Fig. 8f, compound 2.5 mM, relative to 0 mM): 0.4196
In vitro mTORC1 assay, p-4E-BP1(T37/46)/4E-BP1, Mean (mTORC1 [1]; Fig. 8f, compound 5 mM, relative to 0 mM): 0.4175
In vitro mTORC1 assay, p-4E-BP1(T37/46)/4E-BP1, Mean (mTORC1 [1]; Fig. 8j, Mal-CoA 2 mM, ATP 0 uM, relative to control at 500 uM ATP): 0.1107
In vitro mTORC1 assay, p-4E-BP1(T37/46)/4E-BP1, Mean (mTORC1 [1]; Fig. 8j, Mal-CoA 2 mM, ATP 25 uM, relative to control at 500 uM ATP): 0.133
In vitro mTORC1 assay, p-4E-BP1(T37/46)/4E-BP1, Mean (mTORC1 [1]; Fig. 8j, Mal-CoA 2 mM, ATP 100 uM, relative to control at 500 uM ATP): 0.267
In vitro mTORC1 assay, p-4E-BP1(T37/46)/4E-BP1, Mean (mTORC1 [1]; Fig. 8j, Mal-CoA 2 mM, ATP 500 uM, relative to control at 500 uM ATP): 0.681
In vitro mTORC1 assay, p-4E-BP1(T37/46)/4E-BP1, Mean (mTORC1 [1]; Fig. 8j, Mal-CoA 2 mM, ATP 2000 uM, relative to control at 500 uM ATP): 1.021
In vitro mTORC1 assay, p-4E-BP1(T37/46)/4E-BP1, Mean (mTORC1 [1]; Fig. 8j, Mal-CoA 2 mM, ATP 5000 uM, relative to control at 500 uM ATP): 1.149
Ki (mTORC1 [1]; read-out: Ki (ATP-competitive, human mTORC1)): 770 µM
kinase activity of mTORC1 containing non-malonylatable mTOR^K1218R [2]: readily inhibited
Km [3]: 220 to 520 µM

C/C=C/C/C=C/CCC(=O)[C@H]1O[C@H]1C(N)=O [cerulenin]
combined effect of rapamycin and cerulenin on yeast growth (yeast cells): additive effect
GFP/Adh1 (relative Mal-CoA levels), Mean (Mal-CoA levels; 20 μM cerulenin 2h): 2.242
GFP/Adh1 (relative Mal-CoA levels), Mean (Mal-CoA levels; 20 μM cerulenin 3h): 5.039
GFP/Adh1 (relative Mal-CoA levels), Mean (Mal-CoA levels; 20 μM cerulenin 4h): 7.957
p-Sch9(T737)/Sch9, Mean (TORC1): 0.2682 and 0.4097
TORC1 activity (phosphorylation of Sch9) in vivo (TORC1; cerulenin-treated yeast, Fig. 2a,c): strongly reduced
p-Sch9(T737)/Sch9 (relative TORC1 activity), Mean (TORC1; 20 μM cerulenin 2h): 0.4698
p-Sch9(T737)/Sch9 (relative TORC1 activity), Mean (TORC1; 20 μM cerulenin 3h): 0.1772
p-Sch9(T737)/Sch9 (relative TORC1 activity), Mean (TORC1; 20 μM cerulenin 4h): 0.1415
p-Ypk1(T662)/Ypk1, Mean (TORC2; acc1S1157A yeast): 1.9821
p-Ypk1(T662)/Ypk1, Mean (TORC2; wt yeast): 2.002
phosphorylation of Ypk1^T662 (TORC2 target residue) (TORC2; yeast): did not inhibit
Mal-K/Adh1, Mean ([4]; acc1S1157A yeast): 8.735
Mal-K/Adh1, Mean ([4]; wt yeast): 8.631
Mal-K/Tubulin, Mean ([5]; ED Fig. 6c, relative to Luc): 1.769
total protein malonylation (Mal-K immunoblot) ([5]; HEK293FT cells, cerulenin treatment): detectable increase
mTORC1 activity in MCF-7 (mTORC1 [6]): downregulates
FASN, ACC1 and mTOR total protein levels ([7]; 4 h cerulenin): not affected
FASN/Tubulin, Mean ([7]; ED Fig. 3l, relative to DMSO): 1.005
ACC1/Tubulin, Mean ([7]; ED Fig. 3m, relative to DMSO): 1.011
mTOR/Tubulin, Mean ([7]; ED Fig. 3n, relative to DMSO): 1.067
lysine malonylation of immunopurified human FASN ([8]; cerulenin-treated (50 μM, 4 h) vs control): malonylation increasing further
malonylation of immunopurified human mTOR ([8]; control or cerulenin-treated (50 μM, 4 h)): unable to detect malonylation
lysine malonylation of immunopurified yeast Fas1 ([9]; cerulenin-treated (10 μM, 2 h) vs control): malonylation increasing further
malonylation of immunopurified yeast Tor1 ([9]; control or cerulenin-treated (10 μM, 2 h)): unable to detect malonylation
